Assays:
Settings in all cases: Meleagris gallopavo
[1] = molecular target: T1, ADP-ribosyltransferase (Homo sapiens) (UniProt P52961); assay: Inhibition of ADP-ribosyltransferase 1 that catalyze ADP-ribosyltransferase was measured at 0 uM concentration
T1 sequence (whole entry): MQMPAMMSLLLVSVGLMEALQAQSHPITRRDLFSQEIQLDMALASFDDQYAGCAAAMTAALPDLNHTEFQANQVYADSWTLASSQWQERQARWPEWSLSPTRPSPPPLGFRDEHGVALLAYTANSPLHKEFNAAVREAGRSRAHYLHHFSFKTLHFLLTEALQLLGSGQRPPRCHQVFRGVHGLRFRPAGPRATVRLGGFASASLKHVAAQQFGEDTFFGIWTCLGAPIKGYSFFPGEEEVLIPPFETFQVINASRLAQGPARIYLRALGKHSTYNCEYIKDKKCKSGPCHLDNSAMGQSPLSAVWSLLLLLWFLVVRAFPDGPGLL

[2] = molecular target: T1, ADP-ribosyltransferase (Homo sapiens); assay: Inhibition of ADP-ribosyltransferase 1 that catalyze ADP-ribosyltransferase was measured at 1000 uM concentration
[3] = molecular target: T1, ADP-ribosyltransferase (Homo sapiens); assay: Inhibition of ADP-ribosyltransferase 1 that catalyze ADP-ribosyltransferase was measured at 100 uM concentration

Nc1ncnc2c1ncn2[C@@H]1O[C@H](COP(=O)(O)OP(=O)(O)OC[C@H]2NC[C@H](O)[C@@H]2O)[C@@H](O)[C@H]1O
Activity [1]: 0.06 units/assay
Activity [2]: 0.05 units/assay
Activity [3]: 0.07 units/assay

Source: ChEMBL document CHEMBL1128694, “Specific inhibition of poly(ADP-ribose) glycohydrolase by adenosine diphosphate (hydroxymethyl)pyrrolidinediol” (J Med Chem, 1995)
